Experimental data as given in PMC4998004, “aPKC Inhibition by Par3 CR3 Flanking Regions Controls Substrate Access and Underpins Apical-Junctional Polarization” (Developmental Cell, 2016).
Substitutions are numbered along the chain they refer to. Each block holds one molecule with its values, some of them ahead of it. Non-standard residues stand in square brackets, D forms with d. Residues, ends and D or L forms follow the SMILES beside them. No end group written: not given here. pS = N[C@@H](COP(=O)(O)O)C(=O)O

What was measured:
[1] = molecular target: T1, PKCιKD-2P (primed human PKC-iota kinase domain) (Homo sapiens, UniProt P41743, C595S); assay: In vitro kinase assay (ADP Quest), peptide as substrate, Michaelis-Menten kinetics; assay type: biochemical; conditions: for increase of apparent kcat relative to wild-type Par3CR3: phosphorylation by PKCιKD-2P, Figures 5A and 5C
T1 construct: encoding residues 248–596 (GenBank: NM_002740.5); GST (followed by a 3C protease site) (N, cleaved yes); made in house; host or cells: Hi5 insect cells, baculovirus, co-infected with a PDK-1 virus
T1 sequence (P41743 248-596 C595S): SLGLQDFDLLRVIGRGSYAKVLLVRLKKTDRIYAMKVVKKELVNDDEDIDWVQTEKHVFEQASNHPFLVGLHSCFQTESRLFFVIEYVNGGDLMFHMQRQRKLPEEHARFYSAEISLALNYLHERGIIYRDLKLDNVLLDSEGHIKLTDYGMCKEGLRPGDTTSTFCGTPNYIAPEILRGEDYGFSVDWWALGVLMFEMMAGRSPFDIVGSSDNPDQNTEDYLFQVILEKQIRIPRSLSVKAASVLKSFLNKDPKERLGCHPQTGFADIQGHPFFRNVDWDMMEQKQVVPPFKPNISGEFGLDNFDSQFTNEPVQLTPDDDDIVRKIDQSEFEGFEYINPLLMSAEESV
Procedure: (§1) The ADP Quest kit (DiscoveRx) was used to determine the kcat app and KM app values for ATP against the PKCιKD-1P and PKCιKD-2P using a series of synthetic peptide substrates as described by [Kjaer et al. (2013)]. The reactions were measured every 2 min for 30 min in a 384-well plate using a Safire^2 plate reader (Tecan). The kinetic constants were determined by fitting the data to the Michaelis-Menten equation. Data are represented as mean ± SEM. Fluorescence anisotropy assays were performed to determine the KD for each peptide labeled with a fluorescein tag following standard protocols using a Safire^2 plate reader (Tecan). The anisotropy values were normalized and the KD was determined using non-linear regression. All experiments were performed in triplicate and for at least three independent protein preparations.
The ADP Quest kit (DiscoveRx) was used to determine the kcat app and Km app values for ATP against the PKCι KD-1P and PKCι KD-2P. The assay uses a coupled reaction to convert ADP to a product that has a fluorescence excitation at 530 nm and emission at 590 nm. Several synthetic peptide substrates were used including a model peptide […]
(§2) ([…]) derived from a PKCε pseudo-substrate sequence with an alanine-serine change. We found this peptide to be an efficient substrate peptide for aPKC isozymes. Peptides from human Par3CR3 (residues 816-835) and F-X-R short […]
peptide ([…]) related to the Nishikawa and co-workers consensus were also used in the study (Nishikawa et al., 1997). For the kcat app and Km app reactions, the ATP concentration ranged from 0-200 µM, while the synthetic peptide substrates were kept constant at 200 µM to avoid product inhibition. The reactions were measured every two minutes for 30 minutes in a 384-well plate using a Safire 2 plate reader (Tecan). The kinetic constants were determined by fitting the data to Michaelis–Menten equation using the graphics program Prism (GraphPad Prism, version 5.0d, GraphPad Software). […]

[2] = molecular target: T1, PKCιKD-2P (primed human PKC-iota kinase domain); assay: Fluorescence anisotropy binding assay with fluorescein-labelled peptides; conditions: for Kd: Figure S4D, fluorescein-labelled εPSS peptides
Procedure: as §1, with “preparations. […]” for “preparations.”
Several synthetic peptide substrates were used including a model peptide […]
as §2
peptide ([…]) related to the Nishikawa and co-workers consensus were also used in the study (Nishikawa et al., 1997). […]
The kinetic constants were determined by fitting the data to […]
Fluorescence anisotropy binding assays
Fluorescence anisotropy assays were performed to determine the Kd for each peptide following a previously described protocol (Guettler et al., 2008). Binding assays were performed in 20 mM Tris pH 7.5, 50 mM NaCl, 5% glycerol and 0.5 mM TCEP. The reaction mixtures contained fluorescein labelled peptides at a constant 50 nM concentration, while the protein concentration ranged from 0-200 µM. The 20 µl reactions were carried out in 384-well plate and measured after 30 minutes on the Safire2 plate reader (Tecan) with the excitation at 470 nm and emission at 525 nm. […]

[3] = molecular target: T2, human PKC-iota kinase domain, primed active form (PKCιKD-2P) (human, UniProt P41743 248-596, phosphothreonine at 412 and 564 (pT412, pT564)); assay: FP
T2 chain: T1 sequence (P41743 248-596 C595S) with S348C

[4] = molecular target: T3, human PKC-iota kinase domain, primed active form (PKCιKD-2P) (human, UniProt P41743 248-596, phosphothreonine at 412 and 564 (pT412, pT564)); assay: cell-based or functional assay
T3 sequence (looked up): T1 sequence (P41743 248-596 C595S) with S348C

Molecule: CSCC[C@H](NC(=O)[C@H](C)NC(=O)[C@H](CCC(N)=O)NC(=O)[C@H](CCCNC(=N)N)NC(=O)CNC(=O)[C@H](Cc1ccccc1)NC(=O)CNC(=O)[C@H](CCC(=O)O)NC(=O)[C@H](CCCNC(=N)N)NC(=O)[C@H](CCC(N)=O)NC(=O)[C@H](Cc1ccccc1)NC(=O)[C@H](C)NC(=O)[C@@H](N)CC(C)C)C(=O)N[C@@H](CO)C(=O)N[C@@H](CCC(=O)O)C(=O)N[C@@H](CCCCN)C(=O)N[C@@H](CCCNC(=N)N)C(=O)N[C@H](C(=O)N[C@@H](CCCCN)C(=O)N[C@@H](CCC(N)=O)C(=O)O)[C@@H](C)O [S827A] (H-LAFQREGFGRQAMSEKRTKQ-OH; N-terminus and C-terminus assumed)
kcat app ([1]; Figure 5A, ADP Quest, read every 2 min for 30 min, Michaelis-Menten fit, mean ± SEM): 0.0167 ± 0.0017 s⁻¹

Molecule: CSCC[C@H](NC(=O)[C@H](CO)NC(=O)[C@H](CCC(N)=O)NC(=O)[C@H](CCCNC(=N)N)NC(=O)CNC(=O)[C@H](Cc1ccccc1)NC(=O)CNC(=O)[C@H](CCC(=O)O)NC(=O)[C@H](C)NC(=O)[C@H](CCC(N)=O)NC(=O)[C@H](C)NC(=O)[C@H](C)NC(=O)[C@@H](N)CC(C)C)C(=O)N[C@@H](CO)C(=O)N[C@@H](CCC(=O)O)C(=O)N[C@@H](CCCCN)C(=O)N[C@@H](CCCNC(=N)N)C(=O)N[C@H](C(=O)N[C@@H](CCCCN)C(=O)N[C@@H](CCC(N)=O)C(=O)O)[C@@H](C)O [Par-3CR3AXA] (H-LAAQAEGFGRQSMSEKRTKQ-OH; N-terminus and C-terminus assumed)
increase of apparent kcat relative to wild-type Par3CR3 [1]: 57 fold

Molecule: CSCC[C@H](NC(=O)[C@H](COP(=O)(O)O)NC(=O)[C@H](CCC(N)=O)NC(=O)[C@H](CCCNC(=N)N)NC(=O)CNC(=O)[C@H](Cc1ccccc1)NC(=O)CNC(=O)[C@H](CCC(=O)O)NC(=O)[C@H](CCCNC(=N)N)NC(=O)[C@H](CCC(N)=O)NC(=O)[C@H](Cc1ccccc1)NC(=O)[C@H](C)NC(=O)[C@@H](N)CC(C)C)C(=O)N[C@@H](CO)C(=O)N[C@@H](CCC(=O)O)C(=O)N[C@@H](CCCCN)C(=O)N[C@@H](CCCNC(=N)N)C(=O)N[C@H](C(=O)N[C@@H](CCCCN)C(=O)N[C@@H](CCC(N)=O)C(=O)O)[C@@H](C)O [Par-3CR3pS827] (H-LAFQREGFGRQ[pS]MSEKRTKQ-OH; N-terminus and C-terminus assumed)
interaction with / affinity for PKCιKD-2P (in words) [2]: two orders of magnitude lower

Molecule: A-X-A + A-A-T: Par3CR3 combining both site 1 and site 3 mutations (LAAQAEGFGRQSMSEAATK)
interaction with / affinity for PKCιKD-2P (in words) [2]: no measurable interaction
phosphorylation as substrate by PKCι in vitro (in words) ([1]; in vitro kinase assay): not detectably phosphorylated

Molecule: CSCC[C@H](NC(=O)[C@H](CO)NC(=O)[C@H](CCC(N)=O)NC(=O)[C@H](CCCNC(=N)N)NC(=O)CNC(=O)[C@H](Cc1ccccc1)NC(=O)CNC(=O)[C@H](CCC(=O)O)NC(=O)[C@H](CCCNC(=N)N)NC(=O)[C@H](CCC(N)=O)NC(=O)[C@H](Cc1ccccc1)NC(=O)[C@H](C)NC(=O)[C@@H](N)CC(C)C)C(=O)N[C@@H](CO)C(=O)N[C@@H](CCC(=O)O)C(=O)N[C@@H](C)C(=O)N[C@@H](C)C(=O)N[C@H](C(=O)N[C@@H](CCCCN)C(=O)N[C@@H](CCC(N)=O)C(=O)O)[C@@H](C)O [Par-3CR3AAT] (H-LAFQREGFGRQSMSEAATKQ-OH; N-terminus and C-terminus assumed)
increase of apparent kcat relative to wild-type Par3CR3 [1]: 18 fold

Molecule: LAFQREGFGRQ[pS]MSEKRTK (also: fluorescein label (position not given here)) [phospho-S827 Par3 peptide (PKCι reaction product)]
Kd [3]: 115 µM

Molecule: LAFQREGFGRQSMSEAATK (also: fluorescein label (position not given here)) [Par3CR3 A-A-T mutant peptide (K-R-T to A-A-T, site 3 inhibitory arm)]
fold increase of the apparent kcat of Par3CR3 phosphorylation by PKCιKD-2P, in vitro kinase assay [4]: 18 fold
Kd [3]: 424 µM

Molecule: LAAQAEGFGRQSMSEKRTK (also: fluorescein label (position not given here)) [Par3CR3 A-X-A mutant peptide (F-Q-R to A-Q-A, site 1 affinity arm)]
fold increase of the apparent kcat of Par3CR3 phosphorylation by PKCιKD-2P, in vitro kinase assay [4]: 57 fold
Kd [3]: 228 µM

The next lines start with the values.

Kd [2]: 1.8 ± 0.1 µM
Molecule: CSCC[C@H](NC(=O)[C@H](CCCNC(=N)N)NC(=O)[C@@H](N)CCC(=O)O)C(=O)N[C@@H](CCCNC(=N)N)C(=O)N1CCC[C@H]1C(=O)N[C@@H](Cc1ccccc1)C(=O)N[C@@H](CCCCN)C(=O)N[C@@H](CCCNC(=N)N)C(=O)N[C@@H](CCC(N)=O)C(=O)NCC(=O)N[C@@H](CO)C(=O)N[C@H](C(=O)N[C@@H](CCCNC(=N)N)C(=O)N[C@@H](CCCNC(=N)N)C(=O)N[C@@H](CCCNC(=N)N)C(=O)N[C@H](C(=O)N[C@@H](Cc1c[nH]cn1)C(=O)N[C@@H](CCC(N)=O)C(=O)N[C@H](C(=O)N[C@@H](CC(N)=O)C(=O)O)C(C)C)C(C)C)C(C)C [ε -5Fpss] (H-ERMRPFKRQGSVRRRVHQVN-OH)

Kd [2]: 16.4 ± 3.5 µM
Molecule: CSCC[C@H](NC(=O)[C@H](CCCNC(=N)N)NC(=O)[C@@H](N)CCC(=O)O)C(=O)N[C@@H](CCCNC(=N)N)C(=O)N1CCC[C@H]1C(=O)N[C@@H](CCCNC(=N)N)C(=O)N[C@@H](CCCCN)C(=O)N[C@@H](CCCNC(=N)N)C(=O)N[C@@H](CCC(N)=O)C(=O)NCC(=O)N[C@@H](CO)C(=O)N[C@H](C(=O)N[C@@H](CCCNC(=N)N)C(=O)N[C@@H](CCCNC(=N)N)C(=O)N[C@@H](CCCNC(=N)N)C(=O)N[C@@H](Cc1ccccc1)C(=O)N[C@@H](Cc1c[nH]cn1)C(=O)N[C@@H](CCC(N)=O)C(=O)N[C@H](C(=O)N[C@@H](CC(N)=O)C(=O)O)C(C)C)C(C)C [ε +5Fpss] (H-ERMRPRKRQGSVRRRFHQVN-OH)

Kd [2]: 13.3 ± 2.1 µM
Molecule: CSCC[C@H](NC(=O)[C@H](CCCNC(=N)N)NC(=O)[C@@H](N)CCC(=O)O)C(=O)N[C@@H](CCCNC(=N)N)C(=O)N1CCC[C@H]1C(=O)N[C@@H](CCCNC(=N)N)C(=O)N[C@@H](CCCCN)C(=O)N[C@@H](CCCNC(=N)N)C(=O)N[C@@H](CCC(N)=O)C(=O)NCC(=O)N[C@@H](CO)C(=O)N[C@H](C(=O)N[C@@H](CCCNC(=N)N)C(=O)N[C@@H](CCCNC(=N)N)C(=O)N[C@@H](CCCNC(=N)N)C(=O)N[C@H](C(=O)N[C@@H](Cc1c[nH]cn1)C(=O)N[C@@H](CCC(N)=O)C(=O)N[C@H](C(=O)N[C@@H](CC(N)=O)C(=O)O)C(C)C)C(C)C)C(C)C [εpss, reference compound] (H-ERMRPRKRQGSVRRRVHQVN-OH)
